Test results taken from US12391692B2, “Spiro ring-containing quinazoline compound” (WIGEN BIOMEDICINE TECHNOLOGY (SHANGHAI) CO., LTD., priority 2020, dated 2025).
pIC50: −log10 of the molar value.

Assays:
pERK level in H358 cells = assay: pERK and ERK protein content assay in H358 cells (ELISA); format: cell-based; conditions: Homo sapiens, NCI-H358, pERK/ERK ratio vs DMSO group, compound 1 μM, 24 h, read-out: Inhibition rate (%)
Method: H358 cells were seeded in a 24-well plate. After one day of growth, a test compound (at a concentration of 1 μM) was added. After 24 h of action of the compound, the cells were lysed, and the cell lysate was transferred to a 96-well ELISA plate. The levels of pERK and ERK in the lysate were measured using an ELISA kit (abcam 176660). The ratio of pERK to ERK was calculated and compared with that of the DMSO group, and the percentage of inhibition of pERK activity by the compound was calculated.

H358 cells = assay: Antiproliferative activity against H358 cells (Cell Titer Glow, ultra-low attachment plate); format: cell-based; conditions: Homo sapiens, NCI-H358, 72 h, three days after addition of compound
Method: 2500 H358 cells were seeded in a 96-well ultra-low attachment plate (corning, 7007). After one day of growth, a serially diluted compound (a maximum concentration of 5 μM, 5-fold dilution, a total of five doses) was added. Three days after the addition of the compound, Cell Titer Glow (Promega, G9681) was added to evaluate pellet growth, and the IC50 value was calculated.

| Structure (SMILES) | inhibition at 1 µM (pERK level in H358 cells) [%] | pIC50 (H358 cells) |
| --- | --- | --- |
| C=CC(=O)N1CC2(CCN(c3nc(N4CC(N(C)CC#N)C4)nc4c(OCC(F)(F)F)c(-c5c(C)ccc6[nH]ncc56)c(C5CC5)cc34)CC2)C1 [Compound 20] | 50 to 90 | 6.00 to 6.52 |
| C=CC(=O)N1CC2(CCN(c3nc(N4CC(CN5CCOCC5)C4)nc4c(OCC(F)(F)F)c(-c5c(C)ccc6[nH]ncc56)c(C5CC5)cc34)CC2)C1 [Compound 8] | 50 to 90 | 6.00 to 6.52 |
| C=CC(=O)N1CC2(CCN(c3nc(N4CC5(CCCN5C)C4)nc4c(OCC(F)(F)F)c(-c5c(C)ccc6[nH]ncc56)c(C=C)cc34)CC2)C1 [Compound 131] | > 90 | > 6.52 |
| C=CC(=O)N1CC2(CCN(c3nc(N4CC5(C4)CC(F)(F)CN5C)nc4c(OCC(F)(F)F)c(-c5c(C)ccc6[nH]ncc56)c(C5CC5)cc34)CC2)C1 [Compound 129] | > 90 | > 6.52 |
| C=CC(=O)N1CC2(CCN(c3nc(N4CC(N5CC6(CN(C)C6)C5)C4)nc4c(OCC(F)(F)F)c(-c5c(C)ccc6[nH]ncc56)c(C5CC5)cc34)CC2)C1 [Compound 32] | > 90 | > 6.52 |
| C=CC(=O)N1CC2(CCN(c3nc(N4CC(N5CC6(CC6)C5)C4)nc4c(OCC)c(-c5c(C)ccc6[nH]ncc56)c(C5CC5)cc34)CC2)C1 [Compound 97] | > 90 | > 6.52 |
| C=CC(=O)N1CC2(CCN(c3nc(N4CC(n5cccc5)C4)nc4c(OCC(F)(F)F)c(-c5c(C)ccc6[nH]ncc56)c(C5CC5)cc34)CC2)C1 [Compound 39] | 50 to 90 | 6.00 to 6.52 |
| C=CCN1CCCC12CN(c1nc(N3CCC4(CC3)CN(C(=O)C=C)C4)c3cc(C4CC4)c(-c4c(C)ccc5[nH]ncc45)c(OCC(F)(F)F)c3n1)C2 [Compound 119] | > 90 | > 6.52 |
| C=CC(=O)N1CC2(CCN(c3nc(N4CC5(C=CCN5CC)C4)nc4c(OCC(F)(F)F)c(-c5c(C)ccc6[nH]ncc56)c(C5CC5)cc34)CC2)C1 [Compound 128] | > 90 | > 6.52 |
| C=CC(=O)N1CC2(CCN(c3nc(N4CC(N5CC6(CC6)C5)C4)nc4c(OCC(F)(F)F)c(-c5c(F)ccc6cn[nH]c56)c(C5CC5)cc34)CC2)C1 [Compound 110] | > 90 | > 6.52 |
| C=CC(=O)N1CC2(CCN(c3nc(N4CC5(CCCN5C5CC5)C4)nc4c(OCC(F)(F)F)c(-c5c(C)ccc6[nH]ncc56)c(C5CC5)cc34)CC2)C1 [Compound 120] | > 90 | > 6.52 |
| C=CC(=O)N1CC2(CCN(c3nc(N4CC(N5CCC56CC6)C4)nc4c(OCC(F)(F)F)c(-c5c(C)ccc6[nH]ncc56)c(C5CC5)cc34)CC2)C1 [Compound 34] | > 90 | > 6.52 |
| C=CC(=O)N1CC2(CCN(c3nc(N4CC(CC#N)(N5CCOCC5)C4)nc4c(OCC(F)(F)F)c(-c5c(C)ccc6[nH]ncc56)c(C5CC5)cc34)CC2)C1 [Compound 56] | > 90 | > 6.52 |
| C=CC(=O)N1CC2(CCN(c3nc(N4CC(COC5CN(C)C5)C4)nc4c(OCC(F)(F)F)c(-c5c(C)ccc6[nH]ncc56)c(C5CC5)cc34)CC2)C1 [Compound 11] | > 90 | > 6.52 |
| C=CC(=O)N1CC2(CCN(c3nc(N4CC(N5CC6(CC6)C5)C4)nc4c(OCC(F)F)c(-c5c(C)ccc6[nH]ncc56)c(C5CC5)cc34)CC2)C1 [Compound 98] | > 90 | > 6.52 |
| C=CC(=O)N1CC2(CCN(c3nc(N4CC(C)(N(C)C)C4)nc4c(OCC(F)(F)F)c(-c5c(C)ccc6[nH]ncc56)c(C5CC5)cc34)CC2)C1 [Compound 59] | > 90 | > 6.52 |
| C=CC(=O)N1CC2(CCN(c3nc(N4CC(N5CC[C@H](O)C5)C4)nc4c(OCC(F)(F)F)c(-c5c(C)ccc6[nH]ncc56)c(C5CC5)cc34)CC2)C1 [Compound 45] | > 90 | > 6.52 |
| C=CC(=O)N1CC2(CCN(c3nc(N4CC5(CC(O)CN5C)C4)nc4c(OCC(F)(F)F)c(-c5c(C)ccc6[nH]ncc56)c(C5CC5)cc34)CC2)C1 (stereo not drawn) [Compound 121] | > 90 | > 6.52 |
| C=CC(=O)N1CC2(CCN(c3nc(O[C@H]4C[C@@H](N5CCC5)C4)nc4c(OCC(F)(F)F)c(-c5c(C)ccc6[nH]ncc56)c(C5CC5)cc34)CC2)C1 [Compound 87] | > 90 | > 6.52 |
| C=CC(=O)N1CC2(CCN(c3nc(N4CC(N5CC=CCC5)C4)nc4c(OCC(F)(F)F)c(-c5c(C)ccc6[nH]ncc56)c(C5CC5)cc34)CC2)C1 [Compound 43] | 50 to 90 | < 6.00 |
| C=CC(=O)N1CC2(CCN(c3nc(N4CC5(CC(OC)CN5C)C4)nc4c(OCC(F)(F)F)c(-c5c(C)ccc6[nH]ncc56)c(C5CC5)cc34)CC2)C1 (stereo not drawn) [Compound 123] | > 90 | > 6.52 |
